Laboratory results reported in patent US10487056B2, “Small molecule androgen receptor inhibitors and methods of use thereof” (GEORGETOWN UNIVERSITY, priority 2015, dated 2019).

How the values were obtained:
Assay type in all cases: cell-based
VCaP-MDVR cells = assay: Cell viability (MTT), VCaP-MDVR cells; settings: MDV3100, ARN-509 10 μM, SH-I-125 range, 3 days
Description: Cell viability was measured using the MTT assay.

[1] = target: T1, AR NTD-Gal4DBD fusion protein (Homo sapiens, UniProt P10275); assay: AR NTD-Gal4DBD / Gal4UAS-luciferase reporter in VCaP cells, forskolin-induced; settings: forskolin 50 μM, 24 hours
T1 construct: expressed in transfected cells; host or cells: VCaP
T1 sequence (P10275 with tags, fused parts or gaps limits assumed): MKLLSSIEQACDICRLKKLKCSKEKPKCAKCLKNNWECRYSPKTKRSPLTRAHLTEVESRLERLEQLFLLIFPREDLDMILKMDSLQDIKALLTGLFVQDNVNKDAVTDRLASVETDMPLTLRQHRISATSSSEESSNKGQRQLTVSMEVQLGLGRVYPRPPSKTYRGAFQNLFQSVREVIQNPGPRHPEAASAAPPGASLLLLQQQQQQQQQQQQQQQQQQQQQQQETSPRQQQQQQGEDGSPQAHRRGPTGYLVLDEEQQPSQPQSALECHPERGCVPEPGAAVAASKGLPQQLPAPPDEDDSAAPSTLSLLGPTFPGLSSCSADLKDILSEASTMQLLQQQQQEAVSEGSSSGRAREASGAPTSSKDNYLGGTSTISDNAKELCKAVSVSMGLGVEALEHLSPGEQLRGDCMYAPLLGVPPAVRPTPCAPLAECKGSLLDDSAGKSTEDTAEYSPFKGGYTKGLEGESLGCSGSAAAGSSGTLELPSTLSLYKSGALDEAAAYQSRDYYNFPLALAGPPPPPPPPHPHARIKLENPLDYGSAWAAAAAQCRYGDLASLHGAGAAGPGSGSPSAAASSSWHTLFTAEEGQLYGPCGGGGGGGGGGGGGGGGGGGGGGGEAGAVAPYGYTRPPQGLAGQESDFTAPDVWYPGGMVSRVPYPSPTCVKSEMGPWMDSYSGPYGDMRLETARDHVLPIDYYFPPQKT
Description: VCaP cells were co-transfected with AR-NTD-Gal4DBD expression vector and Gal4UAS-TATA-luciferase reporter construct and optionally treated with forskolin (FSK) (50 μM) for 24 hours.
The N-terminal domain of the AR (AR NTD) is known to be its transactivation domain, essential for ligand-independent AR activation.

AR and AR-V7 = assay: Immunofluorescence staining of AR and AR-V7 in 22Rv1 cells; settings: SH-I-125 1 μM, 24 hours
Description: […]. Androgen receptor (AR) and PSA expression levels were assessed.
(§1) Immunofluorescence staining was performed as described in Amin et al., Mol. Cancer Ther., 13:341-52 (2014).
22Rv1 cells represent a commonly observed castration-resistant phenotype, including androgen-independent growth and the expression of AR splice variants, such as AR-V7. […]. […] […].

AR [2] = assay: Immunofluorescence staining of AR and PSA in VCaP-MDVR cells; settings: DHT 1 nM, MDV3100 10 μM or SH-I-125 1 μM, 24 hours
Description: AR and PSA expression levels were assessed.
as §1

22Rv1-MDVR cells = assay: Caspase-Glo 3/7 activity assay, 22Rv1-MDVR cells; settings: SH-I-125 1 μM, 3 days
Description: Caspase 3/7 activity was measured using Caspase-Glo 3/7 substrates. Data represent mean of three independent experiments with quadruplicate samples; bars, SEM.
The emergence of resistance to clinical anti-androgens is an ongoing problem in the treatment of castration-resistant prostate cancer.

AR [3] = assay: Immunofluorescence staining of AR in 22Rv1-MDVR cells; settings: MDV3100 10 μM, ARN509 10 μM or SH-I-125 1 μM, 24 hours
Description: […]. AR and AR-V7 expression levels were assessed.
as §1

AR [4] = assay: 22Rv1-ARE-luc androgen-response element luciferase reporter assay; settings: 24 hours
Description: VCaP and CWR22Rv1 (referred to as 22Rv1) cells were transduced with ARE-luciferase Cignal Lenti Pathway Reporter (Qiagen; Valencia, Calif.) and cultured as described above in the presence of 1 μg/mL puromycin. Following antibiotic selection, cells stably expressing ARE-luciferase were isolated, cloned and cultured to generate a stable ARE-reporter cell lines.

[5] = tested on: estrogen response element; assay: Estrogen response element (ERE) luciferase reporter in 22Rv1 cells; settings: 1 μM, 24 hours
Description: (§2) 22Rv1 cells were transfected with ERE promoter-luciferase reporter construct and Renilla luciferase plasmids (pRL-TK-Luc) and treated with 1 μM of SH-I-125 for 24 hours. Promoter activity was determined after normalization with Renilla luciferase activity. Columns, mean of three independent experiments with quadruplicate samples; bars, SEM.

22Rv1 cells [6] = assay: MTT cell viability assay, 22Rv1 cells; settings: 3 days
Description: Cells were treated in the manner indicated below for the specified period of time. MTT assay was performed as described in Amin et al., Mol. Cancer Ther., 13:341-52 (2014).
To determine the effects of SH-I-125 on prostate cancer cell growth, 22Rv1 cells were treated with SH-I-125 and cell viability was measured after a period of 3 days. […]. In comparison, non-tumorigenic primary prostate epithelial cells (PrEC) retained 80% viability in the presence of a similar range of doses of SH-I-125, showing that tumorigenic cells are more susceptible to the growth inhibitory properties of SH-I-125 compared to non-tumorigenic cells (FIG. 8B). […] Staurosporine was used as a positive control for cell death induction in live and dead assays (FIG. 9C).

22Rv1 cells [7] = assay: Cleaved caspase-3 and cleaved PARP by Western blot and immunofluorescence, 22Rv1 cells; settings: SH-I-125 1 μM, three days
Description: 22Rv1 cells were treated with SH-I-125 (1 μM) for one, two, or three days, and caspase 3/7 activity was measured using Caspase-Glo 3/7 substrates. […] Data represent mean of three independent experiments with quadruplicate samples; bars, SEM. ***, p value <0.001 determined by ANOVA.
The presence of cleaved caspase-3 and cleaved PARP were determined. The cells were counterstained with 4′,6-diamidino-2-phenylindole (DAPI).
Western blotting was performed as described in Amin et al., Mol. Cancer Ther., 13:341-52 (2014). The following antibodies were used: Androgen receptor (N-20; Santa Cruz Biotechnology; Dallas, Tex.), PSA (A0562; Dako; Carpinteria, Calif.), β-actin (SC-47778; Santa Cruz Biotechnology), AR-V7 (AG10008; Precision Antibody; Columbia, Md.), cleaved PARP (9541; Cell Signaling Technologies, Danvers, Mass.), and cleaved caspase-3 (9664; Cell Signaling Technologies, Danvers, Mass.).
It was determined whether caspase activity and apoptosis were induced in 22Rv1 cells upon SH-I-125 treatment. […] Staurosporine was used as a positive control for apoptosis induction (FIG. 10B).

c-myc promoter = assay: c-myc promoter-luciferase reporter in 22Rv1 cells; settings: 1 μM, 24 hours
Description: as §2, with “c-myc” for “ERE”

For COc1ccc2c(c1)[nH]c1c(C)c(OS(=O)(=O)c3cccc4ccccc34)ccc12 [SH-I-125, 7-methoxy-1-methyl-9H-carbazol-2-yl naphthalene-1-sulfonate], the “cell growth / viability” value (VCaP-MDVR cells) was “effective in preventing the growth”, the “forskolin-induced AR activation (AR NTD-Gal4DBD luciferase)” value [1] was “significantly inhibited forskolin-induced AR activation” and the “nuclear localization of AR and AR-V7” value (AR and AR-V7) was “decreased the nuclear localization of AR and AR-V7”. The “AR expression / nuclear localization” value (AR [2]) was “decreased AR nuclear localization”, the PSA expression (AR [2]) was “decreased AR nuclear localization and PSA expression” and the “caspase 3/7 activation” value (22Rv1-MDVR cells) was “inducing caspase activation”. For the same molecule, the AR nuclear localization (AR [3]) was “decreased AR nuclear levels”, the “potency relative to mahanine on AR signaling (ARE-luc)” value (AR [4]) was “more potent than mahanine” and the ARE-luciferase activity (AR [4]; range of doses) was “almost completely abolishing ARE-luciferase activity”. The ERE promoter-luciferase activity [5] was “unaffected”, the “potency relative to natural-derived and synthetically-derived mahanine in preventing growth” value (22Rv1 cells [6]; MTT) was “ten-fold” and the viability at 1 µM (22Rv1 cells [6]; Homo sapiens, 72 h, dose of 1 μM, read-out: cell viability, of control) was 50%. For the same molecule, the “cleaved caspase-3 and cleavage of PARP” value (22Rv1 cells [7]) was “presence of cleaved caspase-3 and accompanied by the cleavage of PARP” and the c-myc promoter-luciferase activity (c-myc promoter) was “unaffected”.
